Data published in the NIST ThermoML archive (doi:10.1016/j.jct.2015.08.014).
± gives the expanded uncertainty stated by the source.

Settings: Liquid; for electrical conductivity: Alternating current cell with electrodes; for viscosity: Capillary tube (Ostwald / Ubbelohde) method; for mass density: Vibrating tube method

CCCC[N+]1(C)CCCC1.N#CN=C=[N-] [1-butyl-1-methylpyrrolidinium dicyanamide]
electrical conductivity [S/m], 100 kPa
Settings	273.15 K	283.15 K	293.15 K	298.15 K
Frequency=0.0005 MHz	0.522 ± 0.005	0.786 ± 0.008	1.122 ± 0.011	1.315 ± 0.013
Frequency=0.001 MHz	0.522 ± 0.005	0.786 ± 0.008	1.122 ± 0.011	1.316 ± 0.013
Frequency=0.0015 MHz	0.522 ± 0.005	0.786 ± 0.008	1.123 ± 0.011	1.316 ± 0.013
Frequency=0.002 MHz	0.522 ± 0.005	0.786 ± 0.008	1.123 ± 0.011	1.316 ± 0.013
Frequency=0.0025 MHz	0.522 ± 0.005	0.786 ± 0.008	1.123 ± 0.011	1.317 ± 0.013
Frequency=0.003 MHz	0.522 ± 0.005	0.786 ± 0.008	1.123 ± 0.011	1.317 ± 0.013
Frequency=0.00347222 MHz	0.523 ± 0.005	0.786 ± 0.008	1.123 ± 0.011	1.317 ± 0.013
Frequency=0.004 MHz	0.523 ± 0.005	0.786 ± 0.008	1.123 ± 0.011	1.317 ± 0.013
Frequency=0.00446429 MHz	0.523 ± 0.005	0.786 ± 0.008	1.123 ± 0.011	1.317 ± 0.013
Frequency=0.005 MHz	0.523 ± 0.005	0.786 ± 0.008	1.123 ± 0.011	1.317 ± 0.013
Frequency=0.005454 MHz	0.523 ± 0.005	0.786 ± 0.008	1.123 ± 0.011	1.317 ± 0.013
Frequency=0.006 MHz	0.523 ± 0.005	0.786 ± 0.008	1.123 ± 0.011	1.317 ± 0.013
Frequency=0.00652174 MHz	0.523 ± 0.005	0.786 ± 0.008	1.123 ± 0.011	–
Frequency=0.00694444 MHz	0.523 ± 0.005	0.786 ± 0.008	1.123 ± 0.011	–
Frequency=0.0075 MHz	0.523 ± 0.005	0.786 ± 0.008	1.123 ± 0.011	–
Frequency=0.008 MHz	0.523 ± 0.005	0.786 ± 0.008	1.123 ± 0.011	–
Frequency=0.00857143 MHz	0.523 ± 0.005	0.786 ± 0.008	1.123 ± 0.011	–
Frequency=0.00892857 MHz	0.523 ± 0.005	0.786 ± 0.008	1.124 ± 0.011	–
Frequency=0.00961538 MHz	0.523 ± 0.005	0.786 ± 0.008	1.124 ± 0.011	–
Frequency=0.01 MHz	0.523 ± 0.005	0.786 ± 0.008	1.124 ± 0.011	–

101.33 kPa
Settings	electrical conductivity [S/m]	mass density [kg/m3]	viscosity [mPa·s]
273.15 K	0.523 ± 0.005	1027.69 ± 8.3	93.95 ± 2.3
278.15 K	0.645 ± 0.007	1024.82 ± 8.2	74.27 ± 1.7
283.15 K	0.786 ± 0.008	1021.96 ± 8.2	59.6 ± 1.4
288.15 K	0.943 ± 0.009	1019.11 ± 8.2	48.6 ± 1.1
293.15 K	1.123 ± 0.011	1016.28 ± 8.2	40.25 ± 0.91
